Test results reported in patent US6133294A (priority 1999, dated 2000).

Assays:
Assay type in all cases: in vivo
[1] = test system: Erysiphe graminis; experiment: Powdery Mildew of Wheat (Erysiphe graminis--ERYSGT); conditions: Blumeria graminis; wheat (cultivar Monon), 100 ppm spray to run off, inoculated after 24 hours, 1DP; read-out: control of plant disease, ERYSGT 1DP
Method in brief: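 Wheat seedlings (cv. Monon, 1-2 leaf stage) were sprayed to run-off at 100 ppm, from acetone solution diluted with nine volumes 0.05% aqueous Tween-20 or Triton X-100. Control rated on a scale.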

[2] = test system: Leptosphaeria nodorum; experiment: Glume blotch of wheat (Leptosphaeria nodorum--LEPTNO); conditions: Parastagonospora nodorum; wheat (cultivar Monon), 100 ppm spray to run off, inoculated after 24 hours, 1DP; read-out: control of plant disease, LEPTNO 1DP
Method in brief: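 Wheat seedlings (cv. Monon, 1-2 leaf, BBCH 12) sprayed to run-off at 100 ppm; compound in acetone diluted with nine volumes 0.05% aqueous Tween-20 or Triton X-100. Spore inoculation with Leptosphaeria nodorum after 24 hours; disease rated in greenhouse once untreated controls developed symptoms.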

[3] = test system: Phytophthora infestans; experiment: whole plant or invertebrate; conditions: Phytophthora infestans, 24 h, read-out: control of plant disease, PHYTIN 1DP
[4] = test system: Puccinia recondita; experiment: Brown rust (Puccinia recondita--PUCCRT); conditions: Puccinia recondita; wheat (cultivar Monon), 100 ppm spray to run off, inoculated after 24 hours, 1DP; read-out: control of plant disease, PUCCRT 1DP
Method in brief: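 Wheat (cv. Monon) seedlings were sprayed to run-off at 100 ppm, with compound in acetone diluted with nine volumes of 0.05% aqueous Tween-20 or Triton X-100. Plants were inoculated with Puccinia recondita spores 24 h later.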

| Structure (SMILES) | pest or weed control at 100 ppm [1] [%] | pest or weed control at 100 ppm [2] [%] | pest or weed control at 100 ppm [3] [%] | pest or weed control at 100 ppm [4] [%] |
| --- | --- | --- | --- | --- |
| CNC(=O)C(=NOC)c1ccccc1COc1ncc(-c2noc(C(F)(F)F)n2)cc1Cl [Example 11] | 75 to 100 | 75 to 100 | 0 to 24 | 75 to 100 |
| CNC(=O)C(=NOC)c1ccccc1COc1ncc(-c2noc(C(C)(C)C)n2)cc1Cl [Example 6, Benzeneacetamide, 2-[[[3-chloro-5-(5-t-butyl-1,2,4-oxadiazol-3-yl)-2-pyridinyl]oxy]methyl]-α-(methoxyimino)-N-methyl-] | 75 to 100 | 75 to 100 | 75 to 100 | 75 to 100 |
